Measured values as given in PubChem BioAssay AID2060612 (Molecular Pharmacology Branch, DTP, NCI, 2025).

System: 565232-114-T-J1-PDC complex spheroid viability
Assay: Anticancer human tumor 565232-114-T-J1-PDC patient-derived bladder carcinoma cell line growth inhibition [CLK]
Conditions: for IC50: curve of first compound; for viability, T/C: stronger effect = lower value
Description: A high-throughput screen of multi-cell type tumor spheroids was designed to identify active combinations of […] and targeted small molecules. Complex spheroids include a stromal component modeled by human endothelial cells (HUVEC) and fibroblasts modeled by human mesenchymal stem cells (MSCs). The concentration ranges selected for each drug and investigational agent were based upon clinically achievable concentrations if the clinical Cmax of the agent was known.
Compounds. The drugs and investigational agents: cirtuvivint (SM08502; NSC835563), CC-671 (NSC850746), vemurafenib (NSC761431), tapotoclax (NSC804041), sotorasib (NSC818433), adagrasib (NSC831453), MRTX-1133 (NSC836407), BAY2416964 (NSC825713), copanlisib (NSC816437), inavolisib (NSC800729), abemaciclib (NSC768073), osimertinib (NSC779217), entinostat (NSC756642), eltanexor (KPT-8602, NSC794443), venetoclax (NSC766270), ceralasertib (NSC777638), bortezomib (NSC756655), olaparib (NSC753686), talazoparib (NSC767125), alisertib (NSC759677), peposertib (NSC802822), gemcitabine (NSC613327), 5-fluorouracil (NSC19893), SN-38 (NSC673596), oxaliplatin (NSC266046), paclitaxel (NSC125973), and doxorubicin (NSC123127), were obtained from the National Cancer Institute (NCI) Developmental Therapeutics Program Chemical Repository. The FDA-approved anticancer drug set is available from the Developmental Therapeutics Program at https://dtp.cancer.gov/organization/dscb/obtaining/available plates.htm. […] The stock solutions were prepared in dimethyl sulfoxide (DMSO, Sigma-Aldrich, St. Louis, MO, cat. D2650), except for the platinum complexes which were prepared in saline (Quality Biological, Gaithersburg, MD, cat. 114-055-101), at 800-fold the tested concentration and stored at -70 degrees C prior to their use. All drugs and investigational agents were tested over a range starting from a high concentration at or near the clinical Cmax and decreasing in half-log increments. If the clinical Cmax for an agent had not been determined, the highest concentration tested was 10 microM.
Cell Culture. All cells were maintained in an incubator at 37 degrees C and 5% CO2 with 95% humidity. The PDC lines were cultured according to standard operating procedures established by the NCI PDMR. Briefly, all PDCs were thawed and cultured in Matrigel-coated flasks prepared with a working solution of 1X Ham's F-12 nutrient mix, without supplementation (Invitrogen, Waltham, MA, cat. 11765054), 100 U/mL penicillin-streptomycin (Invitrogen, cat. 15140122), and 2.5% Matrigel (Corning Inc., Corning, NY, cat. 354248) for the first three passages. The 947758-054-R-J2-PDC line was cultured in 6B/Colon 1A media, which includes advanced DMEM/F-12 (Thermo Fisher Scientific, cat. 12634028), 10 mM HEPES (Thermo Fisher Scientific, cat. 15630080), 1X GlutaMAX supplement (Thermo Fisher Scientific, cat. 35050061), 0.1 mg/mL primocin (InvivoGen, cat. ant-pm-2), 10% defined fetal bovine serum, heat inactivated (HyClone Laboratories Inc., cat. SH30070.03HI), 1.25 mM N-Acetyl-L-cysteine (Sigma-Aldrich, cat. A9165), 10 mM nicotinamide (Sigma-Aldrich, cat. N0636), 1X B-27 supplement (Thermo Fisher Scientific, cat. 17504044), 1X N-2 supplement (Thermo Fisher Scientific, cat. 17502048), and 10 microM Y-27632 dihydrochloride (Tocris Bioscience, cat. 1254). The 876862-298-R-J1-PDC was cultured in 6E media, which includes all 6B/Colon 1A media components plus 50% L-WRN conditioned media (ATCC, cat. CRL-3276), 50 ng/mL recombinant human EGF recombinant protein (hEGF; Thermo Fisher Scientific, cat. PHG0311), 10 ng/mL recombinant human fibroblast growth factor 10 (hGFG-10; PeproTech, cat. 100-26), 1 ng/mL recombinant human fibroblast growth factor 2 (hFGF-2; PeproTech, cat. 100-18B), and 1 µM prostaglandin E2 (PGE2; Tocris, cat. 2296). The 227483-062-R1-J1-PDC line was cultured in Panc media, containing all 6E components except hFGF-2, with the addition of 500 nM SB-431542 (Selleckchem, cat. S1067) and 10 nM gastrin (Tocris, cat. 3006). […]
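Further: spheroids exposed to compounds for 7 days before readout.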
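Wherever viability, T/C is given: 100% = DMSO vehicle wells with luminescence normalized to vehicle control.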

`O=C(c1cc(Cc2n[nH]c(=O)c3ccccc23)ccc1F)N1CCN(C(=O)C2CC2)CC1` + CNC(=O)c1ccc(Nc2nc(OC3CCCC3)c3c(-c4ccc5nc(C)oc5c4)c[nH]c3n2)c(OC)c1 was tested, and the IC50 (second compound 0.0316 µM) was > 10000 nM, the IC50 (second compound 0.1 µM) was 1500 nM and the IC50 (second compound 0.316 µM) was < 31.6 nM. For the same compound, the IC50 (second compound 1 µM) was < 31.6 nM, the IC50 (second compound 3.16 µM) was < 31.6 nM and the IC50 (second compound 10 µM) was < 31.6 nM. For the same compound, the viability, T/C (second compound 0.0316 µM, first compound 0.0316 µM) was 81.7%, the viability, T/C (second compound 0.0316 µM, first compound 0.1 µM) was 85.9% and the viability, T/C (second compound 0.0316 µM, first compound 0.316 µM) was 87.8%. For the same compound, the viability, T/C (second compound 0.0316 µM, first compound 1 µM) was 82.8%, the viability, T/C (second compound 0.0316 µM, first compound 3.16 µM) was 104% and the viability, T/C (second compound 0.0316 µM, first compound 10 µM) was 64.8%. The viability, T/C (second compound 0.1 µM, first compound 0.0316 µM) was 49%, the viability, T/C (second compound 0.1 µM, first compound 0.1 µM) was 52.6% and the viability, T/C (second compound 0.1 µM, first compound 0.316 µM) was 63.5%. For the same compound, the viability, T/C (second compound 0.1 µM, first compound 1 µM) was 48.8%, the viability, T/C (second compound 0.1 µM, first compound 3.16 µM) was 45.7% and the viability, T/C (second compound 0.1 µM, first compound 10 µM) was 34%. For the same compound, the viability, T/C (second compound 0.316 µM, first compound 0.0316 µM) was 36.4%, the viability, T/C (second compound 0.316 µM, first compound 0.1 µM) was 40.3% and the viability, T/C (second compound 0.316 µM, first compound 0.316 µM) was 30.4%. It also gave a viability, T/C (second compound 0.316 µM, first compound 1 µM) of 32.4%, a viability, T/C (second compound 0.316 µM, first compound 3.16 µM) of 33.4% and a viability, T/C (second compound 0.316 µM, first compound 10 µM) of 30.2%. The viability, T/C (second compound 1 µM, first compound 0.0316 µM) was 24%, the viability, T/C (second compound 1 µM, first compound 0.1 µM) was 26.8% and the viability, T/C (second compound 1 µM, first compound 0.316 µM) was 23.2%. It also gave a viability, T/C (second compound 1 µM, first compound 1 µM) of 22.8%, a viability, T/C (second compound 1 µM, first compound 3.16 µM) of 27.1% and a viability, T/C (second compound 1 µM, first compound 10 µM) of 24.8%. It also gave a viability, T/C (second compound 3.16 µM, first compound 0.0316 µM) of 22.5%, a viability, T/C (second compound 3.16 µM, first compound 0.1 µM) of 23.4% and a viability, T/C (second compound 3.16 µM, first compound 0.316 µM) of 21.3%. It also gave a viability, T/C (second compound 3.16 µM, first compound 1 µM) of 21.7%, a viability, T/C (second compound 3.16 µM, first compound 3.16 µM) of 22.4% and a viability, T/C (second compound 3.16 µM, first compound 10 µM) of 19.3%. It also gave a viability, T/C (second compound 10 µM, first compound 0.0316 µM) of 23.2%, a viability, T/C (second compound 10 µM, first compound 0.1 µM) of 25.5% and a viability, T/C (second compound 10 µM, first compound 0.316 µM) of 16.5%. It also gave a viability, T/C (second compound 10 µM, first compound 1 µM) of 22.3%, a viability, T/C (second compound 10 µM, first compound 3.16 µM) of 21% and a viability, T/C (second compound 10 µM, first compound 10 µM) of 18.2%.
